pEC50, pIC50: −log10 of the molar value. Where two headings read alike, the source gives them in different places.
Assays:
[1] = system: cytokinin-dependent tobacco callus Nicotiana tabacum L. cv. Wisconsin 38; assay: Tobacco callus biotest (plant cell division); format: cell-based
Method: The stimulatory effect of the newly prepared derivatives was tested in the calus biotest using cytokinin-dependent tobacco callus. Cytokinin-dependent tobacco callus Nicotiana tabacum L. cv. Wisconsin 38 was maintained at 25° C. in darkness on modified Murashige-Skoog medium, containing per 1 liter: 4 μmol of nicotinic acid, 2.4 μmol of pyridoxine hydrochloride, 1.2 μmol of thiamine, 26.6 μmol of glycine, 1.37 μmol of glutamine, 1.8 μmol of myo-inositol, 30 g of sucrose, 8 g of agar, 5.37 μmol of NAA and 0.5 μmol of 6-benzylaminopurine. Subcultivation was carried out every three weeks. Fourteen days before the bioassay, the callus tissue was transferred to the media without 6-benzylaminopurine. The biological activity was determined from the increase of the fresh callus weight after four weeks of cultivation. Five replicates were prepared for each concentration of the compound tested and the entire test was repeated twice. […] The compounds to be tested were dissolved in dimethylsulfoxide (DMSO) and the solution brought up to 10^−3 M with distilled water.
From the obtained data, the concentration with the highest activity was selected for each compound tested. Relative activity of the compound at this concentration was calculated (Table 11). The activity obtained for 10^−5 M of the control substance kinetin (K) was postulated as 100%.

[2] = system: Amaranthus caudatus cotyledon/hypocotyl explants; assay: Amaranthus bioassay (betacyanin content); format: cell-based, Amaranthus caudatus var. atropurpurea; settings: for Activity (%) [10^−5 mol · l^−1 K = 100%]: at the concentration with highest activity, relative to 10^−5 M kinetin
Method: The standard Amaranthus bioassay was performed with the following modifications. The seeds of Amaranthus caudatus var. atropurpurea were surface-sterilised in 10% (w/v) N-chlorobenzenesulfonamide for 10 min and washed 5 times with deionized water. They were placed in 15 cm Petri dishes containing paper tissues saturated with deionized water. After 72 h of cultivation at 25° C. in darkness, the roots of the seedlings were cut off. The explants, consisting of two cotyledons and hypocotyls, were placed in 5 cm Petri dishes onto two layers of filtration paper soaked with 1 ml of the incubation medium containing 10 μmol of Na2HPO4—KH2PO4, pH 6.8, 5 μmol of tyrosine and the compound to be tested. There were 20 explants per dish. The procedure was carried out under green safe light in a darkroom. After 48 h of incubation at 25° C. in darkness, betacyanin was extracted by freezing the explants in 4 ml 3.33 μM acetic acid. The concentration of betacyanin was determined from the absorbances at 537 nm and 620 nm as follows: ΔA=A537nm−A620nm. The values ΔA were plotted against the concentration tested, are means of five replicates and the entire test was repeated at least twice. […] The compounds to be tested were dissolved in dimethylsulfoxide (DMSO) and the solution brought up to 10^−3M with distilled water.
From the obtained data, the concentration with the highest activity was selected for each compound tested. Relative activity of the compound at this concentration was calculated (Tab. 12). The activity obtained for 10^−5 M kinetin (K) was postulated as 100%.

[3] = system: osteosarcoma cell line HOS; assay: Calcein AM cytotoxicity assay; format: cell-based, human; settings: 72 hours
Text: (§1) Absence of toxic effects against mammalian (especially human) cell lines in a wide concentration range is one of the requirements on compounds intended for use in agriculture and medicine. Because toxic compounds negatively influence metabolic processes in cells, many standard cytotoxicity assays are based on measurement of metabolisation rate of various artificial substrates. Resulting product is then quantified e.g. by means of spectrometry. The assays can be easily modified for use in 96-well plates. For evaluation of cytotoxic effect of compounds of this invention, a microtiter assay based on quantification of metabolisation of Calcein AM was used. The assay is widely used in drug screening programs and in chemosensitivity testing. In live cells, Calcein AM is enzymatically hydrolysed and accumulation of resulting calcein is manifested by green fluorescence.
Following human cell lines were used for routine screening of the compounds: T-lymphoblastic leukemia cell line CEM, promyelocytic leukemia cell line HL-60, erytroid leukemia cell line K-562, breast carcinoma cell line MCF-7, osteosarcoma cell line HOS and melanoma cell line G-361. Mouse cell lines B16-F10 (melanoma) and NIH-3T3 (fibroblasts) were used as well. The cells were maintained in Nunc/Corning 80 cm^2 plastic tissue culture flasks and cultured in cell culture medium (DMEM with 5 g/l glucose, 2 mM glutamine, 100 U/ml penicillin, 100 μg/ml streptomycin, 10% fetal calf serum and sodium bicarbonate).
(§2) The cell suspensions were prepared and diluted according to the particular cell type and the expected target cell density (2.500-30.000 cells per well based on cell growth characteristics) and pippetted (80 μl) into 96-well plates. Inoculates were allowed a pre-incubation period of 24 hours at 37° C. and 5% CO2 for stabilisation. Tested compound was added in total volume of 20 μl of water at time zero. Usually, test compound was evaluated at six 3-fold dilutions. In routine testing, the highest concentration tested was 166.6 μM. All drug concentrations were tested in triplicates. Incubations of cells with the test compounds lasted for 72 hours at 37° C., in 5% CO2 atmosphere and 100% humidity. At the end of incubation period Calcein AM in PBS was added into final concentration of 1 μg/ml. After another 1 hour of incubation fluorescence (FD) was measured with the Labsystem FIA Reader Fluoroscan Ascent (UK). Growth inhibition (GI) was estimated using the following equitation: GI=(mean FDdrug exposed wells−mean FDblank)/(mean FDcontrol wells−mean FDblank)×100%. The GI50 value, the drug concentration causing 50% reduction of Calcein AM conversion, was calculated from the obtained dose response curves.

[4] = system: breast carcinoma cell line MCF-7; assay: Calcein AM cytotoxicity assay; format: cell-based, human
Text: as §1
(§3) Mouse cell lines B16-F10 (melanoma) and NIH-3T3 (fibroblasts) were used as well. The cells were maintained in Nunc/Corning 80 cm^2 plastic tissue culture flasks and cultured in cell culture medium (DMEM with 5 g/l glucose, 2 mM glutamine, 100 U/ml penicillin, 100 μg/ml streptomycin, 10% fetal calf serum and sodium bicarbonate).
as §2, with “In routine testing, the highest concentration tested was 166.6 μM.” left out, “FDblank)×100%.” for “FDblank)×100%. The GI50 value, the drug concentration causing 50% reduction of Calcein AM conversion, was calculated from the obtained dose response curves.”

NIH-3T3 (fibroblasts) = assay: Calcein AM cytotoxicity assay; format: cell-based, Mouse
Text: as §1, §3
as §2, with “In routine testing, the highest concentration tested was 166.6 μM.” left out, “FDblank)×100%.” for “FDblank)×100%. The GI50 value, the drug concentration causing 50% reduction of Calcein AM conversion, was calculated from the obtained dose response curves.”

AHK3 = biological target: T1, AHK3 (Arabidopsis thaliana, UniProt Q9C5U1); assay: Activation of cytokinin receptors (E. coli KMI001 beta-galactosidase reporter); format: cell-based; settings: 28 h incubation; n.a. means no activation
T1 sequence (Q9C5U1 1-1036): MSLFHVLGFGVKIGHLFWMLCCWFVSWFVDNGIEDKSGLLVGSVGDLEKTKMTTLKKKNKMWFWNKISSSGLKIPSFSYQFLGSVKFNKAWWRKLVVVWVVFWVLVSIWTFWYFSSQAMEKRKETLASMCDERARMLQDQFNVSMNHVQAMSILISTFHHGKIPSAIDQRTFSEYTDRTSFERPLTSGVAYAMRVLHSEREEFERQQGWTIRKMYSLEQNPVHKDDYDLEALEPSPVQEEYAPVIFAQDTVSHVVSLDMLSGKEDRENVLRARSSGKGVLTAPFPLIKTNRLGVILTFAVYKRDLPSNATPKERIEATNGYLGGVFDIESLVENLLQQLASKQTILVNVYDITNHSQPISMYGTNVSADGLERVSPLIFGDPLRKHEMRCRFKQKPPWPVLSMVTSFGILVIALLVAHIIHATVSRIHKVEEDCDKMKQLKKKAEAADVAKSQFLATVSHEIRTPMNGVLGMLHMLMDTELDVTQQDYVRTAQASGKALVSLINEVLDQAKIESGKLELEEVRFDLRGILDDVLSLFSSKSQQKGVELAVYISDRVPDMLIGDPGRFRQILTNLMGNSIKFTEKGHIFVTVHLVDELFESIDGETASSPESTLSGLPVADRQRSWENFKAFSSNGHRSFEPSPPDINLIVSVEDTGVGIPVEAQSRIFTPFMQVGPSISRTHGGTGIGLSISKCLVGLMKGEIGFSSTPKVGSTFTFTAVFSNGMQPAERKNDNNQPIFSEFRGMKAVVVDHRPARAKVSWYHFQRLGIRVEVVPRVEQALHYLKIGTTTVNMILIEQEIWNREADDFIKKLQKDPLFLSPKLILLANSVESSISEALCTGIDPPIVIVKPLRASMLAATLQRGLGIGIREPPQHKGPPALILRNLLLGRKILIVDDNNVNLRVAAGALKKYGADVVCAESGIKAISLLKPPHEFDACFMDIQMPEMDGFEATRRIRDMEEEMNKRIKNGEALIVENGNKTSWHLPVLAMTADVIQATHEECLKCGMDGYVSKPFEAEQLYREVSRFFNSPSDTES
Method: Escherichia coli strains KMI001 harbouring the plasmid […]4 or […]3 were grown overnight at 25° C. in M9 media enriched with 0.1% casamino acids to OD600 1. The preculture was diluted 1:600 in 1 ml M9 medium containing 0.1% casamino acids and 1 μl stock solution of either the tested compound (10^-7 M-5×10^-5 M) or solvent control (DMSO, ethanol, methanol) were added. The cultures were further grown at 25° C. in microtiter plate, 200 μl per well. […] The cultures were centrifuged and 50 μl aliquots of the supernatant were transferred to microtiter plate containing 2 μl 150 mM 4-methyl umbelliferyl galactoside which was subsequently incubated for 1 h at 37° C. The reaction was stopped by adding 100 μl 0.2 M Na2CO3. […] The EC50 value, the compound concentration activating the receptor to 50%, was calculated from the obtained dose response curves. The values shown in Table 10 are means of three replicates and the entire test was repeated at least twice.

recombinant AtCKX2 = biological target: T2, recombinant AtCKX2 (Arabidopsis thaliana, UniProt Q9FUJ3); assay: Inhibition of cytokinin oxidase/dehydrogenase activity (PMS/MTT microtitre plate assay); format: biochemical
T2 sequence (Q9FUJ3 23-501): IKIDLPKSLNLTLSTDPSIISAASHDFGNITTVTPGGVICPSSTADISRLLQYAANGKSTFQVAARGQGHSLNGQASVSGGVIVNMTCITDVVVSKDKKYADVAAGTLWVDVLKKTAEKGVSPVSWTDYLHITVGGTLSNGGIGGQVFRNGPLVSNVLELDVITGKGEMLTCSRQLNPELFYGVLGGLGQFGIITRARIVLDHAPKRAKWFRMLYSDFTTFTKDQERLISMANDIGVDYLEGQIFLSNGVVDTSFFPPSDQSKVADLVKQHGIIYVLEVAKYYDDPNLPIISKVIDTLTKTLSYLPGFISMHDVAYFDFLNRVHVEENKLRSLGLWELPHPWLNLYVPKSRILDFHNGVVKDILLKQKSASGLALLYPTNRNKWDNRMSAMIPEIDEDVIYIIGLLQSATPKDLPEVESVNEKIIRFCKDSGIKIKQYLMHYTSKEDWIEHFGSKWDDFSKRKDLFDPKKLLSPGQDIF
Method: IC50 determinations were done using the assay in microtitre plate. Each well contained 100 μL of PMS/MTT [phenazine methosulfate/3-(4,5-dimethylthiazol-2-yl)-2,5-diphenyltetrazolium bromide] reaction mixture (final concentrations: 0.1 M KH2PO4, pH 7.4, 1 mM MTT, 0.2 mM PMS) containing the tested compound (3×10^−7 M-3×10^−4 M) and 30 μM N^6-isopentenyladenine (iP) as a substrate. 100 μL of cell-free growth medium of S. cerevisiae strain 23344c ura^− harboring the plasmid pYES2-AtCKX2 was directly used as a source of AtCKX2. Plates were incubated in the dark for […] at 37° C. and the enzymatic reaction was stopped by 25 μL of 35% acetic acid. The absorbance at 578 nm was measured using spectrophotometer Tecan. Absorbance of the sample without iP was subtracted.
The IC50 value, the compound concentration that inhibits the enzyme activity to 50%, was calculated from the obtained dose response curves. The values shown in Table 9 are means of three replicates and the entire test was repeated at least twice.

Structure (SMILES) | Activity (%) [10^−5 mol · l^−1 K = 100%] [2] [%] | GI50 [3] [µM] | GI50 ([4]; 72 hours, read-out: GI50 MCF7) [µM] | GI50 (NIH-3T3 (fibroblasts); 72 hours) [µM] | also measured
COc1cccc(Nc2nc(SC)nc3[nH]cnc23)c1 [Compound 103] | 156.4 | > 167 | > 167 | > 167 | Activity (%) [10^−5 mol · l^−1 K = 100%] ([1]; at the concentration with highest activity, relative to 10^−5 M kinetin): 142.8%; concentration with highest activity ([1]; fresh weight after four weeks): 10^−5 mol · l^−1; concentration with highest activity ([2]; 48 h): 10^−5 mol · l^−1
CSc1nc(Nc2ccccc2)c2[nH]cnc2n1 [Compound 94, 2-Methylthio-6-anilinopurine] | – | – | – | – | GI50 ([3]; Homo sapiens): > 167 µM; GI50 ([4]; Homo sapiens, MCF7, 72 hours): > 167 µM; GI50 (NIH-3T3 (fibroblasts); Mus musculus, NIH3T3, 72 hours): > 167 µM
Nc1nc(Nc2ccccc2)c2nc[nH]c2n1 [Compound 64] | 125.2 | – | – | – | pEC50 (AHK3): 4.60; GI50 ([3]; Homo sapiens): > 167 µM; GI50 ([4]; Homo sapiens, MCF7, 72 hours): > 167 µM; GI50 (NIH-3T3 (fibroblasts); Mus musculus, NIH3T3, 72 hours): > 167 µM
COc1ccccc1Nc1nc(S)nc2nc[nH]c12 [Compound 87] | – | > 167 | > 167 | > 167 | –
Cc1nc(Nc2cccc(O)c2)c2nc[nH]c2n1 [Compound 116] | – | > 167 | > 167 | > 167 | –
Sc1nc(Nc2ccccc2)c2nc[nH]c2n1 [Compound 78, 2-Thio-6-anilinopurine] | – | > 167 | > 167 | > 167 | –
O=C(Nc1ccccc1)Nc1cnns1 [thidiazuron, reference compound] | – | – | – | – | pIC50 (recombinant AtCKX2): 4.52
CSc1nc(Nc2cccc(O)c2)c2nc[nH]c2n1 [Compound 101] | – | > 167 | > 167 | > 167 | –
Nc1nc(Nc2cccc(F)c2)c2nc[nH]c2n1 [Compound 69] | 113.2 | – | – | – | pIC50 (recombinant AtCKX2; 30 μM iP as substrate, pH 7.4, 37° C., means of three replicates, read-out: IC50, inhibition of recombinant AtCKX2): 4.53; pEC50 (AHK3): < 4.30

Reference: patent US8222260B2, “Substituted 6-anilinopurine derivatives as inhibitors of cytokinin oxidase/dehydrogenase and preparations containing these derivatives” (Univerzita Palackego V Olomouci, priority 2007, dated 2012)
